Laboratory results taken from US20230105869A1, “C5aR INHIBITOR REDUCTION OF URINARY sCD163” (CHEMOCENTRYX, INC., priority 2017, published 2023).
Entries after “also recorded” stand apart in the source; their conditions may differ. Marks after values point to notes of the source that are not given here.

Columns and labels:
urinary sCD163 = assay: Urine sCD163/creatinine ratio (ELISA) in clinical trial of AAV patients; format: in vivo, human; settings: for Urine sCD163/creatinine, Geo mean: all on IV cyclophosphamide or rituximab; for Time course of decrease of urine sCD163 (sCD163/creatinine), in words: versus baseline
Method: The clinical trial results presented herein comprised 3 patient groups: (1) Full dose prednisone (60 mg), standard of care; (2) Avacopan 30 mg b.i.d. plus low dose prednisone (20 mg); (3) Avacopan 30 mg b.i.d. plus no prednisone. All patients received either IV cyclophosphamide or IV rituximab. sCD163 (ELISA) and creatinine were measured pre-dose, and at days 8, 15, 29, 57, and 85. The groupings are further described below in Table 1. [table] Mid-stream urine samples were collected with a clean catch method and were shipped to the central laboratory refrigerated the same day for analysis of creatinine, albumin and UACR. Another fraction of urine was centrifuged at 1200 g and 2-8° C. for 10 minutes. Supernatant was aliquoted into cryovials and stored at -70° C. until analysis. Urine sCD163 and MCP-1 were analyzed by ELISA in complete subject sets using ELISA kits from R&D systems. Urine sCD163/creatinine ratios, UACR, and urine MCP-1/creatinine ratios were log transformed for normal distribution. Change from baseline in urine sCD163/creatinine ratios for each time point within group was analyzed by the mixed effects model for repeated measures. P<0.05 was considered as statistically significant.

[1] = system: ANCA-associated vasculitis (AAV); assay: Disease activity and health-related quality of life in clinical trial of AAV patients; format: in vivo, human
Method: The clinical trial results presented herein comprised 3 patient groups: (1) Full dose prednisone (60 mg), standard of care; (2) Avacopan 30 mg b.i.d. plus low dose prednisone (20 mg); (3) Avacopan 30 mg b.i.d. plus no prednisone. All patients received either IV cyclophosphamide or IV rituximab. sCD163 (ELISA) and creatinine were measured pre-dose, and at days 8, 15, 29, 57, and 85. The groupings are further described below in Table 1. [table] […] Panel A plots the Birmingham Vasculitis Activity Score; Panel B plots the Urinary Albumin: creatinine Ratio; Panel C plots the Health-related quality-of-life measurement EQ-5D-5L visual analog scale , expressed as mean +/- SEM over the treatment period; Panel D and Panel E plot the health-related quality-of-life measurement Medical Outcomes Study SF-36 version 2 Physical Functioning and Role Emotional components, expressed as mean +/- SEM over the treatment period.

[2] = D8, Avacopan 30 mg BID where given
[3] = D15, Avacopan 30 mg BID where given
[4] = D29, Avacopan 30 mg BID where given
[5] = D57, Avacopan 30 mg BID where given
[6] = D85, Avacopan 30 mg BID where given

Row | Structure (SMILES) | Urine sCD163/creatinine, Geo mean (urinary sCD163; [2]) | Urine sCD163/creatinine, Geo mean (urinary sCD163; [3]) | Urine sCD163/creatinine, Geo mean (urinary sCD163; [4]) | Urine sCD163/creatinine, Geo mean (urinary sCD163; [5]) | Urine sCD163/creatinine, Geo mean (urinary sCD163; [6]) | Time course of decrease of urine sCD163 (sCD163/creatinine), in words (urinary sCD163) | Time course of decrease of urine sCD163 (sCD163/creatinine), in words (urinary sCD163; listed as full-dose prednisone) | Disease activity (Birmingham Vasculitis Activity Score), in words ([1]; FIG. 1A) | Health-related quality of life (EQ-5D-5L, SF-36 v2), in words ([1]; FIGS. 1C-1E)
1 | C[C@]12C=CC(=O)C=C1CC[C@@H]1[C@@H]2C(=O)C[C@@]2(C)[C@H]1CC[C@]2(O)C(=O)CO [Placebo + FD Prednisone, Prednisone, reference compound] | 300 ng/mmol | 249 ng/mmol | 220 ng/mmol | 116*** ng/mmole | 120** ng/mmole | decreased much later (by week 8) | did not show improvement in urinary sCD163 until day 57 |  | 
2 | Cc1ccc(NC(=O)[C@H]2CCCN(C(=O)c3c(C)cccc3F)[C@H]2c2ccc(NC3CCCC3)cc2)cc1C(F)(F)F [Avacopan] | 180* ng/mmole | 165* ng/mmole | 117** ng/mmole | 125* ng/mmole | 97* ng/mmole | reduced sCD163/creatinine markedly by day 8; also recorded: rapid reduction of sCD163; also recorded: decreased within one week |  | rapid decrease in diseases activity | significant improvement in health-related quality of life
